The values that follow come from US9795602B2, “Polycyclic-carbamoylpyridone compounds and their pharmaceutical use” (Gilead Sciences, Inc., priority 2014, dated 2017).

A short description of data set [1]: Pharmacokinetics after intravenous infusion to male SD rats. In kind it is in vivo. As to conditions: Sprague-Dawley, plasma, rat, IV infusion 0.5 mg/kg; for Vd: read-out: Vss. How it is done: Pharmacokinetic analysis was performed on compounds 25b and 39 following intravenous or oral administration to rats.
The test compounds were formulated in 5% Ethanol, 55% PEG 300, and 40% water at 0.1 mg/mL for IV infusion and for oral dosing.
Each dosing group consisted of 3 male, Sprague-Dawley rats. At dosing, the animals weighed an average of 0.25 kg. The animals were fasted overnight prior to dose administration and up to 4 hr after dosing.
For the IV infusion group, the test article was administered by intravenous infusion over 30 min. The rate of infusion was adjusted according to the body weight of each animal to deliver a dose of 0.5 mg/kg. For the oral dosing group, the test article was administered by oral gavage at 5 mL/kg for a dose of 0.5 mg/kg.
For pharmacokinetic analysis of intravenously administered compounds, serial venous blood samples (approximately 0.3 mL each) were taken from each animal at 0, 0.250, 0.483, 0.583, 0.750, 1.50, 3.00, 6.00, 8.00, 12.0, 24.0, 48 and 72 hours after dosing. The blood samples were collected into Vacutainer™ tubes containing EDTA-K2 as the anti-coagulant and were immediately placed on wet ice pending centrifugation for plasma. An LC/MS/MS method was used to measure the concentration of the test compound in plasma. An aliquot of 50 μL of each plasma sample was added to a clean 96 well plate, and 200 μL of cold acetonitrile/internal standard solution (ACN)/(ISTD) was added. After protein precipitation, an aliquot of 110 μL of the supernatant was transferred to a clean 96-well plate and diluted with 300 μL of water. An aliquot of 10 μL of the above solution was injected into a ABSciex API-4000 triple quadrupole LC/MS/MS system utilizing a HyPurity C18 HPLC column (30×2.1 mm, 3μ), from Thermo-Hypersil (Part #22103-032130). An Agilent 1200 series binary pump (P/N G1312A Bin Pump) was used for elution and separation, and an HTS Pal autosampler (LEAP Technologies, Carrboro, N.C.) was used for sample injection. A API-4000 triple quadrupole mass spectrometer was utilized in multiple reaction monitoring mode (Applied Biosystems, Foster City, Calif.). Liquid chromatography was performed using two mobile phases: mobile phase A contained 0.1% formic acid and 1% isopropylamine in aqueous solution, and mobile phase B contained […]. Non-compartmental pharmacokinetic analysis was performed on the plasma concentration-time data. The resulting data are shown in the first three columns of Table 2. In Table 2, Cl refers to clearance, which characterizes the rate at which drug is removed from plasma. The lower the clearance of a drug is, the longer the elimination half-life is in the body. Vss refers to the steady state volume of distribution and indicates how well a drug is distributed into the tissues. The larger the Vss is, the longer the elimination half-life is in the body. MRT refers to mean residence time, which is a measure of the average time molecules exist in the body.

The next data set concerns HIV-IIIb. Description: Antiviral assay in MT4 cells. As to conditions: Human immunodeficiency virus 1, IIIB, MT4, 120 h, MT4 cells, HIV-IIIb, 5 days; read-out: EC50. In kind it is cell-based. The essentials: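 MT4 cells infected with HIV-IIIb (0.004 m.o.i.) or mock-infected, then plated at 2000 cells per well with compound. After 5 days at 37 °C, cell viability read by CellTiter-Glo chemiluminescence.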

The nature of data set [2]: Plasma protein binding (equilibrium dialysis). Type of data set: in vitro ADME. As to conditions: human, plasma (sodium EDTA) dialysed against buffer; 2 μM in plasma vs. buffer, 24 hours at 37° C.; read-out: % Free HP/Buffer. On the procedure:
Plasma protein binding was determined using a HTD96b equilibrium dialyzer with a plate base, stainless steel pressure plate and Teflon bock. 9 Teflon bars, labeled sequentially from A through I, were assembled with two stainless steel connecting rods. Membranes were placed between two Teflon bars, with the membrane placed approximately 2 mm below the top edge of the bar and the lower membrane edge overlapped the bottom of all wells. The membrane was soaked for about 20 minutes in water, about 20 minutes in ethanol (30/70 v/v) and rinsed with water three times to remove the ethanol. It was soaked in PBS for at least 30 minutes. Plasma in sodium EDTA (Bioreclamation or equivalent) was used. The Plasma (not pH-adjusted) was stored at −80° C. and thawed at room temperature before use. The stock solution of the compounds tested was at 200 μM in DMSO. The quench solution used was 50 nM of an internal standard in 100% ACN. To prepare a 2 μM solution of the compound tested in plasma, 5 μL of a 200 μM stock solution was added to 495 μL of blank plasma. 100 μL plasma was added with 2 μM of test compound into one side of the well. 100 μL of buffer (for plasma vs. buffer) was added into another side of the well. The 96-well plate was covered using an adhesive sealing film and incubated for 24 hours at 37° C. under slow rotation. This procedure was replicated for each compound. 50 μL of plasma sample was put into a 96 well plate, 50 μL of buffer was added. 50 μL of buffer was put into a 96 well plate. 50 μL of plasma was added. 300 μL of quench solution was added and the plate sealed and shaken for 15 minutes. The material was centrifuged for 30 minutes at 3000 RPM and ˜250 μL was transferred into a short plate. The samples were analyzed by LC/MS. The resulting data is shown in the last row of Table 3 as “% Free” which corresponds to the percentage of compound not protein bound.

A short description of data set [3]: Cytotoxicity (CC50) in MT4 cells, mock-infected. In kind it is cell-based. As to conditions: human, mock-infected. The essentials:
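Mock-infected MT4 cells (2000/well) exposed to compounds for 5 days at 37 °C; cell viability then read as chemiluminescence from CellTiter-Glo after brief room-temperature lysis.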

Regarding `CCN1C(=O)c2c(O)c(=O)c(C(=O)NCc3ccc(F)c(Cl)c3F)cn2[C@H]2CCOC[C@H]21` [Compound 39], in data set [1], the MRT was 105 h, the clearance was 2.3 mL/h/kg and the Vd amounted to 0.212 L/kg. For the same compound, the EC50 in the data set on HIV-IIIb was found to be 0.00258 µM. Besides, the fraction unbound at 24 h, 2 µM in data set [2] is 0.0067. Also, the CC50 at 5 days in data set [3] came out at 12.8 µM.

`CCN1C(=O)c2c(O)c(=O)c(C(=O)NCc3ccc(F)c(Cl)c3F)cn2[C@H]2CCO[C@H]21` [Compound 25b]: in data set [1], the MRT was 119 h, the clearance was 1.3 mL/h/kg and the Vd came to 0.141 L/kg. Also, the EC50 in the data set with HIV-IIIb was determined as 0.00437 µM. Besides, the fraction unbound at 24 h, 2 µM in data set [2] is under 0.001. Further, half-maximal cytotoxicity in data set [3] (CC50 at 5 days) was put at 26.7 µM.
